{
  "source": "patent US3989598A",
  "about": "(priority 1962, dated 1976)",
  "key": {"[1]": {"test_system": "Alcaligenes faecalis - ATCC 8749", "experiment": "bacteriostatic activity, dilution method in nutritive broth", "format": "cell-based", "settings": "ATCC8749, read-out: Minimal bacteriostatic concentration"}, "[2]": {"test_system": "Mycobacterium phlei (Bacteriological Institute of Lyon)", "experiment": "bacteriostatic activity, dilution method in nutritive broth", "format": "cell-based", "settings": "Mycolicibacterium phlei, read-out: Minimal bacteriostatic concentration"}, "[3]": {"experiment": "acute toxicity in the mouse", "settings": "in vivo, sc"}, "[4]": {"test_system": "Bacillus subtilis (strain ZO 5 A, Fac. Phie)", "experiment": "bacteriostatic activity, dilution method in nutritive broth", "format": "cell-based", "settings": "read-out: Minimal bacteriostatic concentration"}, "[5]": {"test_system": "Corynebacterium pseudodiphtericum (Fac.Phie)", "experiment": "bacteriostatic activity, dilution method in nutritive broth", "format": "cell-based", "settings": "read-out: Minimal bacteriostatic concentration"}, "[6]": {"test_system": "Bacillus cereus ATCC 6630", "experiment": "bacteriostatic activity, dilution method in nutritive broth", "format": "cell-based", "settings": "ATCC6630, read-out: Minimal bacteriostatic concentration"}, "[7]": {"test_system": "Pasteurella multocida (A. 125 - Institut Pasteur)", "experiment": "bacteriostatic activity, dilution method in nutritive broth", "format": "cell-based", "settings": "read-out: Minimal bacteriostatic concentration"}, "[8]": {"test_system": "Micrococcus lysodeikticus", "experiment": "bacteriostatic activity, dilution method in nutritive broth", "format": "cell-based", "settings": "Micrococcus luteus, read-out: Minimal bacteriostatic concentration"}, "[9]": {"test_system": "lymphosarcoma", "experiment": "utility in treating certain tumours", "format": "in vivo, human"}, "[10]": {"test_system": "Lactobacillus casei - ATCC 7469", "experiment": "bacteriostatic activity, dilution method in nutritive broth", "format": "cell-based", "settings": "Lacticaseibacillus casei, ATCC7469, read-out: Minimal bacteriostatic concentration"}, "[11]": {"test_system": "Staphylococcus aureus novobiocin resistant strain", "experiment": "bacteriostatic activity, dilution method in nutritive broth", "format": "cell-based", "settings": "read-out: Minimal bacteriostatic concentration"}, "[12]": {"test_system": "Bacillus mycoides", "experiment": "bacteriostatic activity, dilution method in nutritive broth", "format": "cell-based", "settings": "read-out: Minimal bacteriostatic concentration"}, "[13]": {"test_system": "Staphylococcus aureus strain Launoy 2", "experiment": "bacteriostatic activity, dilution method in nutritive broth", "format": "cell-based", "settings": "LAUNOY2, strain Launoy 2 (tetracycline, streptomycin and penicillin resistant), read-out: Minimal bacteriostatic concentration"}, "[14]": {"test_system": "Bacillus subtilis or Klebsiella pneumoniae", "experiment": "paper chromatography with bioautography on seeded agar plates", "format": "cell-based", "settings": "paper chromatogram", "source_text": "The antibiotic is chromatographed on Arches No.302 paper impregnated with a pH 4.8 phosphate buffer, with n-butanol saturated with water, using descending development. The chromatogram is developed by bioautography on nutritive agar plates seeded with Bacillus subtilis or Klebsiella pneumoniae."}, "[15]": {"test_system": "Staphylococcus aureus strain 1142 R", "experiment": "bacteriostatic activity, dilution method in nutritive broth", "format": "cell-based", "settings": "read-out: Minimal bacteriostatic concentration"}, "[16]": {"test_system": "Gaffkya tetragena (Fac.Phie)", "experiment": "bacteriostatic activity, dilution method in nutritive broth", "format": "cell-based", "settings": "read-out: Minimal bacteriostatic concentration"}, "[17]": {"test_system": "Neisseria catarrhalis (Fac.Phie)", "experiment": "bacteriostatic activity, dilution method in nutritive broth", "format": "cell-based", "settings": "read-out: Minimal bacteriostatic concentration"}, "[18]": {"test_system": "Staphylococcus aureus erythromycin resistant strain", "experiment": "bacteriostatic activity, dilution method in nutritive broth", "format": "cell-based", "settings": "read-out: Minimal bacteriostatic concentration"}, "[19]": {"test_system": "Mycobacterium para-smegmatis (A 75 - Lausanne)", "experiment": "bacteriostatic activity, dilution method in nutritive broth", "format": "cell-based", "settings": "read-out: Minimal bacteriostatic concentration"}, "[20]": {"test_system": "Salmonella typhimurium (Institut Pasteur)", "experiment": "bacteriostatic activity, dilution method in nutritive broth", "format": "cell-based", "settings": "Salmonella enterica, read-out: Minimal bacteriostatic concentration"}, "[21]": {"test_system": "acute myeloblastic leukemia", "experiment": "utility in treating certain tumours", "format": "in vivo, human"}, "[22]": {"test_system": "Bacillus brevis ATCC 8185", "experiment": "bacteriostatic activity, dilution method in nutritive broth", "format": "cell-based", "settings": "Brevibacillus brevis, ATCC8185, read-out: Minimal bacteriostatic concentration"}, "[23]": {"experiment": "clinical safety of daunorubicin: heart", "format": "in vivo", "settings": "human treatment"}, "[24]": {"experiment": "solubility", "format": "physicochemical"}, "[25]": {"test_system": "Bacillus lactis aerogenes (Fac. Phie)", "experiment": "bacteriostatic activity, dilution method in nutritive broth", "format": "cell-based", "settings": "read-out: Minimal bacteriostatic concentration"}, "[26]": {"test_system": "Staphylococcus aureus strain 662 R", "experiment": "bacteriostatic activity, dilution method in nutritive broth", "format": "cell-based", "settings": "read-out: Minimal bacteriostatic concentration"}, "[27]": {"test_system": "Streptococcus pyogenes Hemolyticus (strain Dig 7, Instut Pasteur)", "experiment": "bacteriostatic activity, dilution method in nutritive broth", "format": "cell-based", "settings": "read-out: Minimal bacteriostatic concentration"}, "[28]": {"test_system": "Pseudomonas aeruginosa (Bass strain - Institut Pasteur)", "experiment": "bacteriostatic activity, dilution method in nutritive broth", "format": "cell-based", "settings": "read-out: Minimal bacteriostatic concentration"}, "[29]": {"test_system": "Shigella dysenteriae (Shiga L. - Institut Pasteur)", "experiment": "microbe, parasite or virus in culture", "format": "cell-based", "settings": "read-out: Minimal bacteriostatic concentration"}},
  "data": [
    {"compound": "COc1cccc2c1C(=O)c1c(O)c3c(c(O)c1C2=O)C[C@@](O)(C(C)=O)C[C@@H]3O[C@H]1C[C@H](N)[C@H](O)[C@H](C)O1", "note": "[13057 RP daunorubicin, daunorubicin]", "values": [
      {"measurement": "MIC", "setting": "[1]", "value": 1.8, "unit": "µg/mL"},
      {"measurement": "MIC", "setting": "[2]", "value": 5, "unit": "µg/mL"},
      {"measurement": "LD50", "setting": "[3]", "value": 47, "unit": "mg/kg"},
      {"measurement": "MIC", "setting": "[4]", "value": 1.5, "unit": "µg/mL"},
      {"measurement": "MIC", "setting": "[5]", "value": 1.7, "unit": "µg/mL"},
      {"measurement": "MIC", "setting": "[6]", "value": 2.2, "unit": "µg/mL"},
      {"measurement": "MIC", "setting": "[7]", "value": 1.8, "unit": "µg/mL"},
      {"measurement": "MIC", "setting": "[8]", "value": 2.5, "unit": "µg/mL"},
      {"measurement": "utility in treating tumours", "setting": "[9]", "value": "proved to be of utility"},
      {"measurement": "MIC", "setting": "[10]", "value": 1.2, "unit": "µg/mL"},
      {"measurement": "MIC", "setting": "[11]", "value": 3.9, "unit": "µg/mL"},
      {"measurement": "MIC", "setting": "[12]", "value": 1.8, "unit": "µg/mL"},
      {"measurement": "MIC", "setting": "[13]", "value": 4.8, "unit": "µg/mL"},
      {"measurement": "active substance by bioautography", "setting": "[14]", "value": "active"},
      {"measurement": "MIC", "setting": "[15]", "value": 2.1, "unit": "µg/mL"},
      {"measurement": "MIC", "setting": "[16]", "value": 6.7, "unit": "µg/mL"},
      {"measurement": "MIC", "setting": "[17]", "value": 2.2, "unit": "µg/mL"},
      {"measurement": "MIC", "setting": "[18]", "value": 3.8, "unit": "µg/mL"},
      {"measurement": "MIC", "setting": "[19]", "value": 2.2, "unit": "µg/mL"},
      {"measurement": "MIC", "setting": "[20]", "value": 1000, "unit": "µg/mL"},
      {"measurement": "utility in treating tumours", "setting": "[21]", "value": "proved to be of utility"},
      {"measurement": "MIC", "setting": "[22]", "value": 1.4, "unit": "µg/mL"},
      {"measurement": "cardiac complications", "setting": "[23]", "value": "sometimes accompanied by cardiac complications"},
      {"measurement": "solubility in alcohols", "setting": "[24]; alcohols", "value": "soluble"},
      {"measurement": "solubility in benzene", "setting": "[24]; benzene", "value": "practically insoluble"},
      {"measurement": "solubility in chloroform", "setting": "[24]; chloroform", "value": "soluble"},
      {"measurement": "solubility in diethyl ether", "setting": "[24]; diethyl ether", "value": "practically insoluble"},
      {"measurement": "solubility in ketones", "setting": "[24]; ketones", "value": "very slighly soluble"},
      {"measurement": "solubility in water", "setting": "[24]; water", "value": "very slighly soluble"},
      {"measurement": "MIC", "setting": "[25]", "value": 120, "unit": "µg/mL"},
      {"measurement": "MIC", "setting": "[26]", "value": 6.3, "unit": "µg/mL"},
      {"measurement": "MIC", "setting": "[27]", "value": 1.6, "unit": "µg/mL"},
      {"measurement": "MIC", "setting": "[28]", "value": 1000, "unit": "µg/mL"},
      {"measurement": "MIC", "setting": "[29]", "value": 2000, "unit": "µg/mL"}
    ]}
  ]
}
